Experimental data published in patent US9062124B2, “GIP-based mixed agonists for treatment of metabolic disorders and obesity” (priority 2008, dated 2015).
Where a SMILES comes first, the peptide text is derived from it. Bridges are numbered along the chain shown (N, C = ends).

Experiments:
Assay type in all cases: cell-based
GLP-1 receptor = target: T1, GLP-1 receptor (Homo sapiens, UniProt P43220); assay: cAMP synthesis functional assay (firefly luciferase reporter in HEK293 cells), GLP-1 receptor; details: Table 1; relative to the native hormone of the indicated receptor
T1 construct: expressed in transfected cells; host or cells: HEK293

GIP receptor = target: T2, GIP receptor (Homo sapiens, UniProt P48546); assay: cAMP synthesis functional assay (firefly luciferase reporter in HEK293 cells), GIP receptor; details: Table 1; relative to the native hormone of the indicated receptor
T2 construct: expressed in transfected cells; host or cells: HEK293
T2 sequence (P48546 22-466): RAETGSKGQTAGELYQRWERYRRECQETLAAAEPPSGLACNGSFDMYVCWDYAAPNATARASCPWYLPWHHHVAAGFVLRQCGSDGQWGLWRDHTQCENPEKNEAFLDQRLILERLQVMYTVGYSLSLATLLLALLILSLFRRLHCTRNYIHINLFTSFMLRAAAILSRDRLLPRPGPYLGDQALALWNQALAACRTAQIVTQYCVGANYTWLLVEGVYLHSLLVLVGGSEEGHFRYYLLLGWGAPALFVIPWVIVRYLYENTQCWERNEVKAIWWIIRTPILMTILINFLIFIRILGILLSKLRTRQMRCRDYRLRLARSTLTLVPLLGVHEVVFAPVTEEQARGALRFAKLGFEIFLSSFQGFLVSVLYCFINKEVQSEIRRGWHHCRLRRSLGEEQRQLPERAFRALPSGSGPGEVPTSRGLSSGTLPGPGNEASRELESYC

glucagon receptor = target: T3, glucagon receptor (Homo sapiens, UniProt P47871); assay: cAMP synthesis functional assay (firefly luciferase reporter in HEK293 cells), glucagon receptor; details: Table 1; for Glucagon Receptor relative activity: relative to the native hormone of the indicated receptor
T3 construct: expressed in transfected cells; host or cells: HEK293
T3 sequence (P47871 26-477): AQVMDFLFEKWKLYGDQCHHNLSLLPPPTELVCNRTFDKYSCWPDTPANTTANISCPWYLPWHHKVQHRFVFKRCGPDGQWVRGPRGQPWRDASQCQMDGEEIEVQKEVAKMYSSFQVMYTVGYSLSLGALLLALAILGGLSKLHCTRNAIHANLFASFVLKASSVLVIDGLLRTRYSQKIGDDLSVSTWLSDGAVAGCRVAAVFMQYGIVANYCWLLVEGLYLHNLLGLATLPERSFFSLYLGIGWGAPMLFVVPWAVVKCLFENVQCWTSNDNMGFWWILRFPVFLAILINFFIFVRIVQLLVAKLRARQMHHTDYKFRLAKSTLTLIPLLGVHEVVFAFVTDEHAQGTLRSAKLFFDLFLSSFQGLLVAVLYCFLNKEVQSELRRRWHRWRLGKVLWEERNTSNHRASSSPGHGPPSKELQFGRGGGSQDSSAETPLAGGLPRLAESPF

T1 sequence (P43220 24-463, species assumed): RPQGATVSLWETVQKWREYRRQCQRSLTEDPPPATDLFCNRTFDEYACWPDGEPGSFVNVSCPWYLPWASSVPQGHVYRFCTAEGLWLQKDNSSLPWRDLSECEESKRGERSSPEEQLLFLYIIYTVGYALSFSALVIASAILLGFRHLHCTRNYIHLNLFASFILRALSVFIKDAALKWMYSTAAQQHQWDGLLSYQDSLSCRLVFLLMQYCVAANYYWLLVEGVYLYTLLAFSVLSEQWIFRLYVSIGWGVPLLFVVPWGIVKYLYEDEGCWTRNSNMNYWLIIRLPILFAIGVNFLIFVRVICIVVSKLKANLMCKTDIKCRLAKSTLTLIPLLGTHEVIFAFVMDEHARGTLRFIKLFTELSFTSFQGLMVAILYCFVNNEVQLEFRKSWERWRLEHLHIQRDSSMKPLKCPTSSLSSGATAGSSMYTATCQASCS

| Structure (SMILES) | GLP-1 Receptor relative activity (GLP-1 receptor) [%] | GIP Receptor relative activity (GIP receptor) [%] | Glucagon Receptor relative activity (glucagon receptor) [%] | EC50 (glucagon receptor; Glucagon Receptor EC50, nM) [nM] |
| --- | --- | --- | --- | --- |
| CC[C@H](C)[C@H](NC(=O)[C@H](CO)NC(=O)[C@H](Cc1ccc(O)cc1)NC(=O)[C@H](CC(=O)O)NC(=O)[C@H](CO)NC(=O)[C@@H](NC(=O)[C@H](Cc1ccccc1)NC(=O)[C@@H](NC(=O)CNC(=O)[C@H](CCC(=O)O)NC(=O)[C@H](C)NC(=O)[C@@H](N)Cc1c[nH]cn1)[C@@H](C)O)[C@@H](C)O)C(=O)N[C@@H](Cc1ccc(O)cc1)C(=O)N[C@@H](CCSC)C(=O)N[C@@H](CC(=O)O)C(=O)N[C@H]1CCC(=O)NCCCC[C@@H](C(=O)N[C@@H](CC(=O)O)C(=O)N[C@@H](Cc2ccccc2)C(=O)N[C@H](C(=O)N[C@@H](CC(N)=O)C(=O)N[C@@H](Cc2c[nH]c3ccccc23)C(=O)N[C@@H](CC(C)C)C(=O)N[C@@H](CC(C)C)C(=O)N[C@@H](C)C(=O)N[C@@H](CCC(N)=O)C(N)=O)C(C)C)NC(=O)[C@H](CCC(N)=O)NC(=O)[C@H](Cc2c[nH]cn2)NC(=O)[C@H]([C@@H](C)CC)NC1=O [mt-97] (H-HAEGTFTSDYSIYMDEIHQKDFVNWLLAQ-NH2; lactam 16-20; N-terminus assumed) | 1.27 | 2.81 | 3.19 | – |
| CC[C@H](C)[C@H](NC(=O)[C@H](CO)NC(=O)[C@H](Cc1ccc(O)cc1)NC(=O)[C@H](CC(=O)O)NC(=O)[C@H](CO)NC(=O)[C@@H](NC(=O)[C@H](Cc1ccccc1)NC(=O)[C@@H](NC(=O)CNC(=O)[C@H](CCC(=O)O)NC(=O)[C@H](C)NC(=O)[C@@H](N)Cc1ccc(O)cc1)[C@@H](C)O)[C@@H](C)O)C(=O)N[C@@H](Cc1ccc(O)cc1)C(=O)N[C@@H](CCSC)C(=O)N[C@@H](CC(=O)O)C(=O)N[C@H]1CCC(=O)NCCCC[C@@H](C(=O)N[C@@H](CC(=O)O)C(=O)N[C@@H](Cc2ccccc2)C(=O)N[C@H](C(=O)N[C@@H](CC(N)=O)C(=O)N[C@@H](Cc2c[nH]c3ccccc23)C(=O)N[C@@H](CC(C)C)C(=O)N[C@@H](CC(C)C)C(=O)N[C@@H](C)C(=O)N[C@@H](CCC(N)=O)C(N)=O)C(C)C)NC(=O)[C@H](CCC(N)=O)NC(=O)[C@H](Cc2c[nH]cn2)NC(=O)[C@H]([C@@H](C)CC)NC1=O [mt-98] (H-YAEGTFTSDYSIYMDEIHQKDFVNWLLAQ-NH2; lactam 16-20; N-terminus assumed) | 1.42 | 25.00 | 0.01 | – |
| CC[C@H](C)[C@H](NC(=O)[C@H](CO)NC(=O)[C@H](Cc1ccc(O)cc1)NC(=O)[C@H](CC(=O)O)NC(=O)[C@H](CO)NC(=O)[C@@H](NC(=O)[C@H](Cc1ccccc1)NC(=O)[C@@H](NC(=O)CNC(=O)[C@H](CCC(=O)O)NC(=O)[C@H](C)NC(=O)[C@@H](N)Cc1ccc(O)cc1)[C@@H](C)O)[C@@H](C)CC)C(=O)N[C@@H](C)C(=O)N[C@@H](CCSC)C(=O)N[C@@H](CC(=O)O)C(=O)N[C@@H](CCCCN)C(=O)N[C@H](C(=O)N[C@@H](Cc1c[nH]cn1)C(=O)N[C@@H](CCC(N)=O)C(=O)N[C@@H](CCC(N)=O)C(=O)N[C@@H](CC(=O)O)C(=O)N[C@@H](Cc1ccccc1)C(=O)N[C@H](C(=O)N[C@@H](CC(N)=O)C(=O)N[C@@H](Cc1c[nH]c2ccccc12)C(=O)N[C@@H](CC(C)C)C(=O)N[C@@H](CC(C)C)C(=O)N[C@@H](C)C(=O)N[C@@H](CCC(N)=O)C(=O)N[C@@H](CCCCN)C(=O)NCC(=O)N[C@@H](CCCCN)C(=O)N[C@@H](CCCCN)C(=O)N[C@@H](CC(N)=O)C(=O)N[C@@H](Cc1c[nH]c2ccccc12)C(=O)N[C@@H](CC(C)C)C(=O)N[C@@H](CCCCN)C(=O)N[C@@H](Cc1c[nH]cn1)C(=O)N[C@@H](CC(N)=O)C(=O)N[C@H](C(=O)N[C@H](C(=O)N[C@@H](CCC(N)=O)C(N)=O)[C@@H](C)O)[C@@H](C)CC)C(C)C)[C@@H](C)CC [mt-99] | 0.00 | 100.00 | 0.00 | – |
| CC[C@H](C)[C@H](NC(=O)[C@H](Cc1ccccc1)NC(=O)[C@H](CCC(=O)O)NC(=O)[C@@H]1CCCCNC(=O)CC[C@H](NC(=O)[C@H](CC(=O)O)NC(=O)[C@H](CC(C)C)NC(=O)[C@H](Cc2ccc(O)cc2)NC(=O)[C@H](CCCCN)NC(=O)[C@H](CO)NC(=O)[C@H](Cc2ccc(O)cc2)NC(=O)[C@H](CC(=O)O)NC(=O)[C@H](CO)NC(=O)[C@@H](NC(=O)[C@H](Cc2ccccc2)NC(=O)[C@@H](NC(=O)CNC(=O)[C@H](CCC(N)=O)NC(=O)[C@H](CO)NC(=O)[C@@H](N)Cc2c[nH]cn2)[C@@H](C)O)[C@@H](C)CC)C(=O)N[C@@H]([C@@H](C)CC)C(=O)N[C@@H](Cc2c[nH]cn2)C(=O)N[C@@H](CCC(N)=O)C(=O)N1)C(=O)N[C@@H](C)C(=O)N[C@@H](Cc1c[nH]c2ccccc12)C(=O)N[C@@H](CC(C)C)C(=O)N[C@@H](CCSC)C(=O)N[C@@H](CC(N)=O)C(=O)N[C@H](C(N)=O)[C@@H](C)O [mt-107] (H-HSQGTFISDYSKYLDEIHQKEFIAWLMNT-NH2; lactam 16-20; N-terminus assumed) | 0.16 | 0.74 | 185.71 | 0.07 |
| CC[C@H](C)[C@H](NC(=O)[C@H](Cc1ccccc1)NC(=O)[C@H](CCC(=O)O)NC(=O)[C@@H]1CCCCNC(=O)CC[C@H](NC(=O)[C@H](CC(=O)O)NC(=O)[C@H](CC(C)C)NC(=O)[C@H](C)NC(=O)[C@H](CCCCN)NC(=O)[C@H](CO)NC(=O)[C@H](Cc2ccc(O)cc2)NC(=O)[C@H](CC(=O)O)NC(=O)[C@H](CO)NC(=O)[C@@H](NC(=O)[C@H](Cc2ccccc2)NC(=O)[C@@H](NC(=O)CNC(=O)[C@H](CCC(N)=O)NC(=O)[C@H](CO)NC(=O)[C@@H](N)Cc2c[nH]cn2)[C@@H](C)O)[C@@H](C)CC)C(=O)N[C@@H]([C@@H](C)CC)C(=O)N[C@@H](Cc2c[nH]cn2)C(=O)N[C@@H](CCC(N)=O)C(=O)N1)C(=O)N[C@@H](C)C(=O)N[C@@H](Cc1c[nH]c2ccccc12)C(=O)N[C@@H](CC(C)C)C(=O)N[C@@H](CCSC)C(=O)N[C@@H](CC(N)=O)C(=O)N[C@H](C(N)=O)[C@@H](C)O [mt-108] (H-HSQGTFISDYSKALDEIHQKEFIAWLMNT-NH2; lactam 16-20; N-terminus assumed) | 12.50 | 0.52 | 68.42 | – |
| CC[C@H](C)[C@@H]1NC(=O)[C@@H](NC(=O)[C@H](CC(=O)O)NC(=O)[C@H](CC(C)C)NC(=O)[C@H](Cc2ccc(O)cc2)NC(=O)[C@H](CCCCN)NC(=O)[C@H](CO)NC(=O)[C@H](Cc2ccc(O)cc2)NC(=O)[C@H](CC(=O)O)NC(=O)[C@H](CO)NC(=O)[C@@H](NC(=O)[C@H](Cc2ccccc2)NC(=O)[C@@H](NC(=O)CNC(=O)[C@H](CCC(N)=O)NC(=O)[C@H](CO)NC(=O)[C@@H](N)Cc2ccc(O)cc2)[C@@H](C)O)[C@@H](C)O)CCC(=O)NCCCC[C@@H](C(=O)N[C@@H](CC(=O)O)C(=O)N[C@@H](Cc2ccccc2)C(=O)N[C@H](C(=O)N[C@@H](CC(N)=O)C(=O)N[C@@H](Cc2c[nH]c3ccccc23)C(=O)N[C@@H](CC(C)C)C(=O)N[C@@H](CC(C)C)C(=O)N[C@@H](C)C(=O)N[C@@H](CCC(N)=O)C(N)=O)C(C)C)NC(=O)[C@H](CCC(N)=O)NC(=O)[C@H](Cc2c[nH]cn2)NC1=O [mt-109] (H-YSQGTFTSDYSKYLDEIHQKDFVNWLLAQ-NH2; lactam 16-20; N-terminus assumed) | 0.78 | 6.99 | 76.92 | – |
